Assay results reported in the NIST ThermoML archive (doi:10.1021/je800831d).
Numbers after ± are expanded uncertainties.

How the values were obtained:
[1] = xn = mol fraction of the nth substance listed; settings: 101 kPa, Liquid
[2] = 101 kPa, Liquid

Compound `C1CCCC1` [cyclopentane] + CCCO has a mass density ([1]; 298.15 K, x1 = 0.0553) of 795.275 ± 0.48 kg/m3, a mass density ([1]; 298.15 K, x1 = 0.1627) of 786.754 ± 0.49 kg/m3 and a mass density ([1]; 298.15 K, x1 = 0.2341) of 781.37 ± 0.5 kg/m3. For the same compound, the mass density ([1]; 298.15 K, x1 = 0.3137) was 775.778 ± 0.51 kg/m3, the mass density ([1]; 298.15 K, x1 = 0.4691) was 764.862 ± 0.52 kg/m3 and the mass density ([1]; 298.15 K, x1 = 0.5666) was 758.623 ± 0.53 kg/m3. It also gave a mass density ([1]; 298.15 K, x1 = 0.6338) of 754.486 ± 0.54 kg/m3, a mass density ([1]; 298.15 K, x1 = 0.7688) of 746.451 ± 0.55 kg/m3 and a mass density ([1]; 298.15 K, x1 = 0.8446) of 742.132 ± 0.56 kg/m3. It also gave a mass density ([1]; 298.15 K, x1 = 0.9167) of 738.181 ± 0.56 kg/m3, a mass density ([1]; 298.15 K, x1 = 1) of 733.634 ± 0.57 kg/m3 and a mass density ([1]; 308.15 K, x1 = 0.0553) of 786.98 ± 0.49 kg/m3. It also gave a mass density ([1]; 308.15 K, x1 = 0.1627) of 778.045 ± 0.5 kg/m3, a mass density ([1]; 308.15 K, x1 = 0.2341) of 772.538 ± 0.51 kg/m3 and a mass density ([1]; 308.15 K, x1 = 0.3137) of 766.718 ± 0.52 kg/m3. For the same compound, the mass density ([1]; 308.15 K, x1 = 0.4691) was 755.363 ± 0.54 kg/m3, the mass density ([1]; 308.15 K, x1 = 0.5666) was 748.897 ± 0.55 kg/m3 and the mass density ([1]; 308.15 K, x1 = 0.6338) was 744.566 ± 0.55 kg/m3. It also gave a mass density ([1]; 308.15 K, x1 = 0.7688) of 737.144 ± 0.56 kg/m3, a mass density ([1]; 308.15 K, x1 = 0.8446) of 733.21 ± 0.57 kg/m3 and a mass density ([1]; 308.15 K, x1 = 0.9167) of 729.51 ± 0.57 kg/m3. For the same compound, the mass density ([1]; 308.15 K, x1 = 1) was 726.571 ± 0.58 kg/m3.

In the case of `CCCCCO` [pentan-1-ol] + C1CCCC1, the mass density ([1]; 298.15 K, x2 = 0) is reported as 811.037 ± 0.45 kg/m3 and the mass density ([1]; 308.15 K, x2 = 0) is reported as 803.683 ± 0.46 kg/m3.

In the case of `CCCCCCCO` [heptan-1-ol] + C1CCCC1, the mass density ([1]; 298.15 K, x2 = 0) is reported as 818.813 ± 0.44 kg/m3 and the mass density ([1]; 308.15 K, x2 = 0) is reported as 811.73 ± 0.45 kg/m3.

Compound `CCCCCO` [pentan-1-ol] has a mass density ([2]; 298.15 K) of 811.037 ± 0.45 kg/m3 and a mass density ([2]; 308.15 K) of 803.683 ± 0.46 kg/m3.

`C1CCCC1` [cyclopentane] + CCCCCCCO gave a mass density ([1]; 298.15 K, x1 = 0.0632) of 815.837 ± 0.45 kg/m3, a mass density ([1]; 298.15 K, x1 = 0.1965) of 808.334 ± 0.46 kg/m3 and a mass density ([1]; 298.15 K, x1 = 0.3173) of 800.287 ± 0.47 kg/m3. The mass density ([1]; 298.15 K, x1 = 0.4244) was 793.064 ± 0.48 kg/m3, the mass density ([1]; 298.15 K, x1 = 0.4606) was 790.282 ± 0.48 kg/m3 and the mass density ([1]; 298.15 K, x1 = 0.5084) was 786.531 ± 0.49 kg/m3. For the same compound, the mass density ([1]; 298.15 K, x1 = 0.6664) was 772.628 ± 0.51 kg/m3, the mass density ([1]; 298.15 K, x1 = 0.7675) was 762.185 ± 0.53 kg/m3 and the mass density ([1]; 298.15 K, x1 = 0.8534) was 752.769 ± 0.54 kg/m3. For the same compound, the mass density ([1]; 298.15 K, x1 = 0.9644) was 739.018 ± 0.56 kg/m3, the mass density ([1]; 298.15 K, x1 = 1) was 733.634 ± 0.57 kg/m3 and the mass density ([1]; 308.15 K, x1 = 0.0632) was 808.629 ± 0.46 kg/m3. For the same compound, the mass density ([1]; 308.15 K, x1 = 0.1965) was 800.856 ± 0.47 kg/m3, the mass density ([1]; 308.15 K, x1 = 0.3173) was 792.895 ± 0.48 kg/m3 and the mass density ([1]; 308.15 K, x1 = 0.4244) was 785.675 ± 0.49 kg/m3. The mass density ([1]; 308.15 K, x1 = 0.4606) was 782.889 ± 0.49 kg/m3, the mass density ([1]; 308.15 K, x1 = 0.5084) was 779.091 ± 0.5 kg/m3 and the mass density ([1]; 308.15 K, x1 = 0.6664) was 764.753 ± 0.52 kg/m3. The mass density ([1]; 308.15 K, x1 = 0.7675) was 754.805 ± 0.54 kg/m3, the mass density ([1]; 308.15 K, x1 = 0.8534) was 745.466 ± 0.55 kg/m3 and the mass density ([1]; 308.15 K, x1 = 0.9644) was 731.663 ± 0.57 kg/m3. The mass density ([1]; 308.15 K, x1 = 1) was 726.571 ± 0.58 kg/m3.

For `C1CCCC1` [cyclopentane], the mass density ([2]; 298.15 K) was 733.634 ± 0.57 kg/m3 and the mass density ([2]; 308.15 K) was 726.571 ± 0.58 kg/m3.

`CCCCCCCO` [heptan-1-ol] gave a mass density ([2]; 298.15 K) of 818.813 ± 0.44 kg/m3 and a mass density ([2]; 308.15 K) of 811.73 ± 0.45 kg/m3.

For `CCCO` [propan-1-ol] + C1CCCC1, the mass density ([1]; 298.15 K, x2 = 0) was 799.813 ± 0.47 kg/m3 and the mass density ([1]; 308.15 K, x2 = 0) was 791.692 ± 0.48 kg/m3.

With `CCCO` [propan-1-ol] the mass density ([2]; 298.15 K) was 799.813 ± 0.47 kg/m3 and the mass density ([2]; 308.15 K) was 791.692 ± 0.48 kg/m3.

`C1CCCC1` [cyclopentane] + CCCCCO gave a mass density ([1]; 298.15 K, x1 = 0.0155) of 810.22 ± 0.45 kg/m3, a mass density ([1]; 298.15 K, x1 = 0.1886) of 799.34 ± 0.47 kg/m3 and a mass density ([1]; 298.15 K, x1 = 0.2742) of 793.439 ± 0.48 kg/m3. It also gave a mass density ([1]; 298.15 K, x1 = 0.3746) of 786.395 ± 0.49 kg/m3, a mass density ([1]; 298.15 K, x1 = 0.3884) of 785.467 ± 0.49 kg/m3 and a mass density ([1]; 298.15 K, x1 = 0.4798) of 779.082 ± 0.5 kg/m3. It also gave a mass density ([1]; 298.15 K, x1 = 0.5738) of 771.559 ± 0.51 kg/m3, a mass density ([1]; 298.15 K, x1 = 0.6868) of 762.096 ± 0.53 kg/m3 and a mass density ([1]; 298.15 K, x1 = 0.7543) of 756.486 ± 0.53 kg/m3. It also gave a mass density ([1]; 298.15 K, x1 = 0.8131) of 751.07 ± 0.54 kg/m3, a mass density ([1]; 298.15 K, x1 = 0.9079) of 742.377 ± 0.56 kg/m3 and a mass density ([1]; 298.15 K, x1 = 1) of 733.634 ± 0.57 kg/m3. For the same compound, the mass density ([1]; 308.15 K, x1 = 0.0155) was 802.763 ± 0.46 kg/m3, the mass density ([1]; 308.15 K, x1 = 0.1886) was 791.417 ± 0.48 kg/m3 and the mass density ([1]; 308.15 K, x1 = 0.2742) was 785.673 ± 0.49 kg/m3. It also gave a mass density ([1]; 308.15 K, x1 = 0.3746) of 778.336 ± 0.5 kg/m3, a mass density ([1]; 308.15 K, x1 = 0.3884) of 777.389 ± 0.5 kg/m3 and a mass density ([1]; 308.15 K, x1 = 0.4798) of 770.553 ± 0.51 kg/m3. The mass density ([1]; 308.15 K, x1 = 0.5738) was 763.458 ± 0.52 kg/m3, the mass density ([1]; 308.15 K, x1 = 0.6868) was 754.298 ± 0.54 kg/m3 and the mass density ([1]; 308.15 K, x1 = 0.7543) was 748.638 ± 0.55 kg/m3. The mass density ([1]; 308.15 K, x1 = 0.8131) was 743.306 ± 0.55 kg/m3, the mass density ([1]; 308.15 K, x1 = 0.9079) was 735.151 ± 0.56 kg/m3 and the mass density ([1]; 308.15 K, x1 = 1) was 726.571 ± 0.58 kg/m3.
